Converted amounts (≈) assume the structure as drawn.
What was measured:
[1] = test system: E. coli isolate 2 (CTX-M-2); assay: Cross-resistance MIC assay, clinical isolate; format: cell-based; design: unit not given beside the values; settings: E. coli isolate 2, CTX-M-2, resistance ESBL; protocol as section 5 (CAMHB; there µg mL-1); unit not given in Table S5
Procedure: (§1) 5. Determination of the minimal inhibitory concentration (MIC) in vitro The MIC of Corramycin was evaluated following the Clinical & Laboratory Standard Institute (CLSI; https://clsi.org) and EUCAST (https://eucast.org) guidelines. First, inoculi of the bacterial test strains were prepared by culturing isolated colonies in cation-adjusted Müller Hinton broth (CAMHB; 2 g L-1 beef infusion solids, 1.5 g L-1 starch, 17.5 g L-1 casein hydrolysates, final pH 7.4) at 37 °C and 180 rpm for 18 h. Next, Corramycin, which was dissolved in DMSO, was transferred into the first row of a 96-well plate to reach an end concentration of 64 µg mL-1 (in 100 µL total volume). A 1:1 serial dilution in cation-adjusted Mueller Hinton broth (CAMHB) of the test compound was done from the top row to the bottom […]
(§2) the respective test strains were transferred into the wells, reaching a total volume of 100 µL and 5x10^5 colony-forming units (CFU) mL-1. After a 20 to 22 h of incubation, the optical density was evaluated on a microplate reader and the MIC endpoint was determined as the lowest concentration of antibiotic at which there was no visible growth observed. Each MIC experiment was performed in duplicates. Table […]
(§3) (1 picture or pasted object on this page, not shown here)
(§4) 6. Investigation of the cross-resistance of Corramycin to clinically used antibiotics […]
(§5) of the MIC according to the protocol described in the previous section. The MIC of the respective antibiotics against 16 clinical isolate E. coli strains, which were obtained from P. Nordmann’s collection and were classified Carbapenem-resistant, Aminoglycoside-resistant or Quinolone-resistant, was […]
(§6) extended-spectrum β-lactamase; CP: carbapenem; AG: aminoglycoside; QL: quinolone; PRP

[2] = test system: E. coli isolate 3 (OXA-30); assay: Cross-resistance MIC assay, clinical isolate; format: cell-based; design: unit not given beside the values; settings: E. coli isolate 3, OXA-30, resistance ESBL-CP; protocol as section 5 (CAMHB; there µg mL-1); unit not given in Table S5
Procedure: as §1, §2, §3, §4, §5, §6

[3] = test system: E. coli isolate 5 (TEM-3); format: cell-based; design: unit not given beside the values; settings: E. coli isolate 5, TEM-3, resistance ESBL; protocol as section 5 (CAMHB; there µg mL-1); unit not given in Table S5
Procedure: as §1, §2, §3, §4, §5, §6

[4] = test system: E. coli isolate 10 (OXA-48+CTX-M-15); assay: Cross-resistance MIC assay, clinical isolate; format: cell-based; settings: E. coli isolate 10, OXA-48+CTX-M-15, resistance ESBL-CP; protocol as section 5 (CAMHB; there µg mL-1); unit not given in Table S5
Procedure: as §1, §2, §3, §4, §5, §6

[5] = test system: E. coli isolate 11 (RMT-B); assay: Cross-resistance MIC assay, clinical isolate; format: cell-based; settings: resistance AG, protocol as section 5 (CAMHB; there µg mL-1), unit not given in Table S5
Procedure: as §1, §2, §3, §4, §5, §6

[6] = test system: E. coli isolate 6 (IMP-1); assay: Cross-resistance MIC assay, clinical isolate; format: cell-based; settings: E. coli isolate 6, IMP-1, resistance ESBL-CP; protocol as section 5 (CAMHB; there µg mL-1); unit not given in Table S5
Procedure: as §1, §2, §3, §4, §5, §6

[7] = test system: E. coli isolate 7 (IMP-4); assay: Cross-resistance MIC assay, clinical isolate; format: cell-based; settings: E. coli isolate 7, IMP-4, resistance ESBL-CP; protocol as section 5 (CAMHB; there µg mL-1); unit not given in Table S5
Procedure: as §1, §2, §3, §4, §5, §6

[8] = test system: E. coli isolate 1 (CTX-M-1); assay: Cross-resistance MIC assay, clinical isolate; design: unit not given beside the values; settings: E. coli isolate 1, CTX-M-1, resistance ESBL; protocol as section 5 (CAMHB; there µg mL-1); unit not given in Table S5
[9] = test system: E. coli isolate 4 (SHV-2a); assay: Cross-resistance MIC assay, clinical isolate; design: unit not given beside the values; settings: resistance ESBL, protocol as section 5 (CAMHB; there µg mL-1), unit not given in Table S5
[10] = test system: E. coli isolate 8 (KPC-2+TEM-1+OXA-9); assay: Cross-resistance MIC assay, clinical isolate; design: unit not given beside the values; settings: E. coli isolate 8, KPC-2+TEM-1+OXA-9, resistance ESBL-CP; protocol as section 5 (CAMHB; there µg mL-1); unit not given in Table S5
[11] = test system: E. coli isolate 9 (OXA-48); assay: Cross-resistance MIC assay, clinical isolate; design: unit not given beside the values; settings: E. coli isolate 9, OXA-48, resistance ESBL-CP; protocol as section 5 (CAMHB; there µg mL-1); unit not given in Table S5
[12] = test system: E. coli isolate 12 (ARM-A); assay: Cross-resistance MIC assay, clinical isolate; design: unit not given beside the values; settings: resistance AG, protocol as section 5 (CAMHB; there µg mL-1), unit not given in Table S5
[13] = test system: E. coli isolate 13 (RMT-C); assay: Cross-resistance MIC assay, clinical isolate; design: unit not given beside the values; settings: resistance AG, protocol as section 5 (CAMHB; there µg mL-1), unit not given in Table S5
[14] = test system: E. coli isolate 14 (qepA); assay: Cross-resistance MIC assay, clinical isolate; design: unit not given beside the values; settings: resistance QL, protocol as section 5 (CAMHB; there µg mL-1), unit not given in Table S5
[15] = test system: E. coli isolate 15 (qnrA1); assay: Cross-resistance MIC assay, clinical isolate; design: unit not given beside the values; settings: E. coli isolate 15, qnrA1, resistance QL; protocol as section 5 (CAMHB; there µg mL-1); unit not given in Table S5
[16] = test system: E. coli isolate 16 (QnrS1); assay: Cross-resistance MIC assay, clinical isolate; design: unit not given beside the values; settings: E. coli isolate 16, QnrS1, resistance QL; protocol as section 5 (CAMHB; there µg mL-1); unit not given in Table S5

SMILES | MIC [1] | MIC [2] | MIC [3] | MIC [4] | MIC [5] | MIC [6] | MIC [7] | MIC [8] | MIC [9] | MIC [10] | MIC [11] | MIC [12] | MIC [13] | MIC [14] | MIC [15] | MIC [16]
CO/N=C(\C(=O)N[C@@H]1C(=O)N2C(C(=O)O)=C(COC(C)=O)CS[C@H]12)c1csc(N)n1 [Cefotaxim] | 64 | 1 | 64 | > 64 mg/L | > 64 mg/L | 0.25 mg/L (≈ 0.549 µM) | > 64 mg/L | > 64 | 64 | > 64 | > 64 | > 64 | > 64 | > 64 | 32 | > 64
CO[C@@]1(NC(=O)Cc2cccs2)C(=O)N2C(C(=O)O)=C(COC(N)=O)CS[C@@H]21 [Cefoxitin] | 4 | 4 | 4 | 16 mg/L (≈ 37.4 µM) | 16 mg/L (≈ 37.4 µM) | 16 mg/L (≈ 37.4 µM) | > 64 mg/L | 8 | 4 | 64 | 16 | 8 | > 64 | 8 | 8 | 8
CO[C@H]1/C=C/O[C@@]2(C)Oc3c(C)c(O)c4c(O)c(c(/C=N/N5CCN(C)CC5)c(O)c4c3C2=O)NC(=O)/C(C)=C\C=C\[C@H](C)[C@H](O)[C@@H](C)[C@@H](O)[C@@H](C)[C@H](OC(C)=O)[C@@H]1C [Rifampicin] |  |  | 16 | 16 mg/L (≈ 19.4 µM) | 16 mg/L (≈ 19.4 µM) | 16 mg/L (≈ 19.4 µM) | 16 mg/L (≈ 19.4 µM) |  | 16 |  | 64 | > 64 |  |  | > 64 | 
CN(C)[C@@H]1C(O)=C(C(N)=O)C(=O)[C@@]2(O)C(O)=C3C(=O)c4c(O)cccc4[C@@](C)(O)[C@H]3C[C@@H]12 [Tetracyclin] | 32 |  |  |  |  |  |  |  |  |  |  |  |  | 4 | 4 | 
NC[C@H]1O[C@H](O[C@H]2[C@H](O)[C@@H](O[C@H]3O[C@H](CO)[C@@H](O)[C@H](N)[C@H]3O)[C@H](N)C[C@@H]2N)[C@H](N)C[C@@H]1O [Tobramycin] | 2 | 2 | 16 | 1 mg/L (≈ 2.14 µM) | 1 mg/L (≈ 2.14 µM) | 2 mg/L (≈ 4.28 µM) | 16 mg/L (≈ 34.2 µM) | 2 | 32 | 8 | 32 | > 64 | > 64 | 0.5 | 32 | 32

From PMC10099666, “Structure Elucidation, Total Synthesis, Antibacterial In Vivo Efficacy and Biosynthesis Proposal of Myxobacterial Corramycin” (Angewandte Chemie (International Ed. in English), 2022)
